From ChEMBL document CHEMBL1125021, “4-[(Carboxymethyl)oxy]- and 4-[(carboxymethyl)amino]-5,7-dichloroquinoline-2-carboxylic acid: new antagonists of the strychnine-insensitive glycine binding site on the N-methyl-D-aspartate receptor complex” (J Med Chem, 1990)

Assays:
[1] = Antagonistic activity against N-methyl-D-aspartate glutamate receptor induced cGMP in rat cerebellar slices..; assay type: functional
[2] = Selectivity ratio as the ratio of IC50 values for [3H]CPP/[3H]-gly
[3] = target: Glutamate NMDA receptor; assay: Binding activity against N-methyl-D-aspartate glutamate receptor in rat brain homogenate using [3H]CPP as the radioligand.; assay type: tissue-based
[4] = target: Glutamate NMDA receptor; assay: Binding activity against N-methyl-D-aspartate glutamate receptor in rat brain homogenate using [3H]-glycine as the radioligand.; assay type: tissue-based

IC50 [1] [µM] | Ratio [2] | IC50 [3] [µM] | IC50 [4] [µM] | Structure (SMILES)
225 | 99 | 893 | 9 | O=C(O)COc1cc(C(=O)O)nc2cc(Cl)cc(Cl)c12
3.6 | 1400 | 140 | 0.1 | O=C(O)CNc1cc(C(=O)O)nc2cc(Cl)cc(Cl)c12
3.5 | 463 | 37 |  | O=C(O)c1cc(O)c2c(Cl)cc(Cl)cc2n1
8 | 405 |  |  | O=C(O)c1cc(O)c2ccc(Cl)cc2n1 [7-CHLOROKYNURENIC ACID]
